Experimental data taken from patent publication US10226451B2, “Substituted bicyclic compounds as bromodomain inhibitors” (ZENITH EPIGENETICS LTD, priority 2013, dated 2019).

Assays:
Human AML MV-4-11 cells = experiment: Inhibition of cell proliferation in MV4-11 cells (CellTiter Aqueous One); format: cell-based; conditions: 72 h
Procedure: In this example, cell titer in MV4-11 cells were quantitated to measure the inhibition of proliferation when treated with a compound of the present disclosure.
MV4-11 cells (CRL-9591) were plated at a density of 5×10^4 cells per well in 96 well flat bottom plates and treated with increasing concentrations of test compound or DMSO (0.1%) in IMDM media containing 10% FBS and penicillin/streptomycin. Triplicate wells were used for each concentration and a well containing only media was used as a control. Plates were incubated at 37° C., 5% CO2 for 72 h before adding 20 μL of the CellTiter Aqueous One Solution (Promega) to each well and incubated at 37° C., 5% CO2 for an additional 3-4 h. The absorbance was read at 490 nm in a spectrophotometer and the percentage of cell titer relative to DMSO-treated cells was calculated after correcting for background by subtracting the blank well's signal. IC50 values were calculated using the Graph Pad Prism software.

[1] = test system: c-myc in Human AML MV4-11 cells; experiment: Inhibition of c-MYC expression (mRNA, real-time PCR) in MV4-11 cells; format: cell-based; conditions: 3 h, mRNA by real-time PCR
Procedure: MV4-11 cells (CRL-9591) were plated at a density of 2.5×10^4 cells per well in 96 well U-bottom plates and treated with increasing concentrations of test compound or DMSO (0.1%) in IMDM media containing 10% FBS and penicillin/streptomycin, and incubated for 3 h at 37° C. Triplicate wells were used for each concentration. Cells were pelleted by centrifugation and harvested using the mRNA Catcher PLUS kit according to manufacturer's instructions. The eluted mRNA isolated was then used in a one-step quantitative real-time PCR reaction, using components of the RNA UltraSense™ One-Step Kit (Life Technologies) together with Applied Biosystems TaqMan® primer-probes for cMYC and Cyclophilin. Real-time PCR plates were run on a ViiA™7 real time PCR machine (Applied Biosystems), data was analyzed, normalizing the Ct values for hMYC to an internal control, prior to determining the fold expression of each sample, relative to the control.

[2] = test system: hApoA-I mRNA in Huh7 cells; experiment: Up-regulation of hApoA-1 mRNA transcription in Huh7 cells; format: cell-based, Human; conditions: EC170, Huh7 cells, 48 h
Procedure: In this example, hApoA-I mRNA in tissue culture cells was quantitated to measure the transcriptional up-regulation of hApoA-I when treated with a compound of the present disclosure.
Huh7 cells (2.5×10^5 per well) were plated in a 96-well plate using 100 μL DMEM per well, (Gibco DMEM supplemented with penicillin/streptomycin and 10% FBS), 72 h before the addition of the compound. The cells are treated with increasing concentrations of the compound or DMSO (0.1%), and incubated at 37° C., 5% CO2 for 48 h. Spent media was removed from the Huh-7 cells and placed on ice for immediate use with the “LDH cytotoxicity assay Kit II” from Abcam. The cells remaining in the plate were rinsed with 100 μL PBS. Cells were harvested using the mRNA Catcher PLUS kit according to manufacturer's instructions. The eluted mRNA was then used in a one-step quantitative real-time PCR reaction, using components of the RNA UltraSense™ One-Step Kit (Life Technologies) together with Applied Biosystems TaqMan® primer-probes for hApoA-I and Cyclophilin. Real-time PCR plates were run on a ViiA™7 real time PCR machine (Applied Biosystems), data was analyzed, normalizing the Ct values for hApoA-1 to an internal control, prior to determining the fold induction of each unknown sample, relative to the control.

[3] = test system: hIL-17 mRNA in human peripheral blood mononuclear cells; experiment: Inhibition of hIL-17 mRNA transcription in OKT3-stimulated PBMC; format: cell-based; conditions: OKT3 antibody, 6 h, read-out: IL-17 activity
Procedure: In this example, hIL-17 mRNA in human peripheral blood mononuclear cells were quantitated to measure the transcriptional inhibition of hIL-17 when treated with a compound of the present disclosure.
Human peripheral blood mononuclear cells were plated (2.0×10^5 cells per well) in a 96-well plate in 45 μL OpTimizer T Cell expansion media (Life Technologies) containing 20 ng/ml IL-2 and penicillin/streptomycin. The cells were treated with increasing concentrations of the test compound or DMSO (0.1%), and incubated at 37° C., 5% CO2 for 1 h before addition of 10× stock OKT3 antibody at 10 ug/ml in media. Triplicate wells were used for each concentration. Cells were incubated at 37° C., 5% CO2 for 6 h before the cells were harvested. At time of harvest, cells were pelleted by centrifugation at 800 rpm for 5 min. Cells were harvested using the mRNA Catcher PLUS kit according to manufacturer's instructions. The eluted mRNA was then used in a one-step quantitative real-time PCR reaction, using components of the RNA UltraSense™ One-Step Kit (Life Technologies) together with Applied Biosystems TaqMan® primer-probes for hIL-17 and Cyclophilin. Real-time PCR plates were run on a ViiA™7 real time PCR machine (Applied Biosystems), data was analyzed, normalizing the Ct values for hIL-17 to an internal control, prior to determining the fold induction of each unknown sample, relative to the control.

hIL-6 mRNA in U937 cells = experiment: Inhibition of hIL-6 mRNA transcription in LPS-stimulated U937 cells; format: cell-based; conditions: Homo sapiens, U-937, PMA-differentiated U937 cells, LPS 1 ug/mL, 3 h, read-out: IL-6 activity
Procedure: In this example, hIL-6 mRNA in tissue culture cells were quantitated to measure the transcriptional inhibition of hIL-6 when treated with a compound of the present disclosure.
Human leukemic monocyte lymphoma U937 cells (CRL-1593.2) were plated at a density of 3.2×10^4 cells per well in a 96-well plate in 100 μL RPMI-1640 containing 10% FBS and penicillin/streptomycin, and differentiated into macrophages for 3 days in 60 ng/mL PMA ([…]) at 37° C. in 5% CO2 prior to the addition of compound. The cells were pretreated for 1 h with increasing concentrations of test compound in 0.1% DMSO prior to stimulation with 1 ug/mL lipopolysaccharide from Escherichia coli. Triplicate wells were used for each concentration. The cells were incubated at 37° C., 5% CO2 for 3 h before the cells were harvested. At time of harvest, media was removed and cells were rinsed in 200 μL PBS. Cells were harvested using the mRNA Catcher PLUS kit according to manufacturer's instructions. The eluted mRNA was then used in a one-step quantitative real-time PCR reaction using components of the RNA UltraSense™ One-Step Kit (Life Technologies) together with Applied Biosystems TaqMan® primer-probes for hIL-6 and Cyclophilin. Real-time PCR plates were run on a ViiA™7 real time PCR machine (Applied Biosystems), data was analyzed, normalizing the Ct values for hIL-6 to an internal control, prior to determining the fold expression of each sample, relative to the control.

[4] = biological target: T1, Brd4 bromodomain 1 (BRD4(1)) (Homo sapiens, UniProt O60885); experiment: Inhibition of tetra-acetylated histone H4 binding to Brd4 bromodomain 1 (HTRF/FRET); conditions: tetra-acetylated histone H4 peptide, His-tagged bromodomain 200 nM, 2 h
T1 construct: made in house; host or cells: E. coli BL21(DE3)
Procedure: Proteins were cloned and overexpressed with a N-terminal 6×His tag, then purified by nickel affinity followed by size exclusion chromatography. Briefly, E. coli BL21(DE3) cells were transformed with a recombinant expression vector encoding N-terminally Nickel affinity tagged bromodomains from Brd2, Brd3, Brd4. Cell cultures were incubated at 37° C. with shaking to the appropriate density and induced overnight with IPTG. The supernatant of lysed cells was loaded onto Ni-IDA column for purification. Eluted protein was pooled, concentrated and further purified by size exclusion chromatography. Fractions representing monomeric protein were pooled, concentrated, aliquoted, and frozen at −80° C. for use in subsequent experiments.
Binding of tetra-acetylated histone H4 and BET bromodomains was confirmed by a Homogenous Time Resolved Fluorescence Resonance Energy Transfer (HTRF®) method. N-terminally His-tagged bromodomains (200 nM) and biotinylated tetra-acetylated histone H4 peptide (25-50 nM, Millipore) were incubated in the presence of Europium Cryptate-labeled streptavidin (Cisbio Cat. #610SAKLB) and XL665-labeled monoclonal anti-His antibody (Cisbio Cat. #61HISXLB) in a white 96 well microtiter plate (Greiner). For inhibition assays, serially diluted test compound was added to these reactions in a 0.2% final concentration of DMSO. Duplicate wells were used for each concentration tested. Final buffer concentrations were 30 mM HEPES pH 7.4, 30 mM NaCl, 0.3 mM CHAPS, 20 mM phosphate pH 7.0, 320 mM KF, 0.08% BSA. After a 2 h incubation at room temperature, fluorescence was measured at 665 and 620 nm with a SynergyH4 plate reader (Biotek). The binding inhibitory activity was shown by a decrease in 665 nm relative to 620 nm fluorescence. IC50 values were determined from a dose response curve.

Compound	IC50 (Human AML MV-4-11 cells) [nM]	IC50 [1] [nM]	ApoA-1 activity [2]	IC50 [3] [nM]	IC50 (hIL-6 mRNA in U937 cells) [nM]	IC50 [4] [nM]
Cc1noc(C)c1-c1cc(-c2c(C)noc2C)c2[nH]c(=O)[nH]c2c1 [Example Compound 1, 4,6-bis(3,5-dimethylisoxazol-4-yl)-1H-benzo[d]imidazol-2(3H)-one]	≤ 300	300 to 3000	+++ (EC170 value less than or equal to 0.3 μM were deemed to be highly active (+++))	≤ 300	≤ 300	≤ 300
Cc1ncccc1-c1cc(-c2c(C)noc2C)cc2[nH]c(=O)n(C)c12 [Example Compound 4, 5-(3,5-dimethylisoxazol-4-yl)-1-methyl-7-(2-methylpyridin-3-yl)-1H-benzo[d]imidazol-2(3H)-one]	300 to 3000	≤ 300	+++ (EC170 value less than or equal to 0.3 μM were deemed to be highly active (+++))	300 to 3000	≤ 300	≤ 300
Cc1cnsc1-c1cc(-c2c(C)noc2C)cc2[nH]c(=O)n(C)c12 [Example Compound 10, 5-(3,5-dimethylisoxazol-4-yl)-1-methyl-7-(4-methylisothiazol-5-yl)-1H-benzo[d]imidazol-2(3H)-one]	≤ 300	≤ 300	–	≤ 300	≤ 300	≤ 300
Cc1noc(C)c1-c1cc(-c2ccc(F)cc2C(F)(F)F)c2c(c1)[nH]c(=O)n2C [Example Compound 11, 5-(3,5-dimethylisoxazol-4-yl)-7-(4-fluoro-2-(trifluoromethyl)phenyl)-1-methyl-1H-benzo[d]imidazol-2(3H)-one]	300 to 3000	300 to 3000	–	≤ 300	300 to 3000	300 to 3000
COc1ccc(F)cc1-c1cc(-c2c(C)noc2C)cc2[nH]c(=O)n(C)c12 [Example Compound 18, 5-(3,5-dimethylisoxazol-4-yl)-7-(5-fluoro-2-methoxyphenyl)-1-methyl-1H-benzo[d]imidazol-2(3H)-one]	300 to 3000	300 to 3000	–	≤ 300	≤ 300	≤ 300
Cc1nc(N)ccc1-c1cc(-c2c(C)noc2C)cc2[nH]c(=O)n(C)c12 [Example Compound 20, 7-(6-amino-2-methylpyridin-3-yl)-5-(3,5-dimethylisoxazol-4-yl)-1-methyl-1H-benzo[d]imidazol-2(3H)-one]	≤ 300	300 to 3000	–	300 to 3000	≤ 300	≤ 300
Cc1n[nH]c(C)c1-c1cc(-c2c(C)noc2C)cc2[nH]c(=O)n(C)c12 [Example Compound 21, 7-(3,5-dimethyl-1H-pyrazol-4-yl)-5-(3,5-dimethylisoxazol-4-yl)-1-methyl-1H-benzo[d]imidazol-2(3H)-one]	≤ 300	≤ 300	–	≤ 300	≤ 300	≤ 300
Cc1noc(C)c1-c1cc(-c2c(C)nn(C)c2C)c2[nH]c(=O)[nH]c2c1 [Example Compound 22, 6-(3,5-dimethylisoxazol-4-yl)-4-(1,3,5-trimethyl-1H-pyrazol-4-yl)-1H-benzo[d]imidazol-2(3H)-one]	≤ 300	≤ 300	–	≤ 300	≤ 300	≤ 300
Cc1noc(CO)c1-c1cc(-c2c(C)nn(C)c2C)c2c(c1)[nH]c(=O)n2C [Example Compound 28, 5-(5-(hydroxymethyl)-3-methylisoxazol-4-yl)-1-methyl-7-(1,3,5-trimethyl-1H-pyrazol-4-yl)-1H-benzo[d]imidazol-2(3H)-one]	300 to 3000	300 to 3000	–	300 to 3000	300 to 3000	≤ 300
Cc1noc(C)c1-c1cc(-c2cccc(C(N)=O)c2C)c2c(c1)[nH]c(=O)n2C [Example Compound 30, 3-(6-(3,5-dimethylisoxazol-4-yl)-3-methyl-2-oxo-2,3-dihydro-1H-benzo[d]imidazol-4-yl)-2-methylbenzamide]	≤ 300	≤ 300	–	≤ 300	≤ 300	≤ 300
